Results as given in patent US20170166928A1, “Compositions And Methods For Genetically Modifying Yeast” (priority 2015, published 2017).

Test system: Candida albicans
Assay: Growth of Candida albicans strains in medium with drug
Assay type: cell-based
Conditions: for drug resistance of cdr1/cdr1 cdr2/cdr2 double mutants versus parental isolate: clinical isolate Can90; for doubling time: liquid growth in 1.2 μg/ml fluconazole
Description: Candida albicans strain SC5314 was used for all experiments unless otherwise noted. The fluconazole-resistant C. albicans strain Can90 was kindly provided by the Massachusetts General Hospital. Yeast strains were grown in YPD (1% Bacto Yeast extract, 2% Bacto Peptone, 2% Dextrose) medium supplemented with 0.27 mM uridine, and selected using Nourseothricin (Nat) at a concentration of 200 μg/ml. Transformations were performed using the lithium acetate method (27). Flipout of Nat^R gene from Cas9-expressing Duet vector pV1025 was done by induction of flippase by growth in Difco yeast carbon base with bovine serum albumin, and screening for isolates that had lost the Nat^R gene. Filamentation experiments were performed with yeast grown overnight in liquid YPD, washed twice in RPMI-1640 medium (Cat #22400-105, Life Technologies) supplemented with 10% fetal bovine serum, and incubated in RPMI+10% FBS for the indicated time at a starting OD of 0.1. Growth curves were performed in a clear-bottomed 96-well plate, incubated with shaking at 30° C. in a Tecan Saphire^2 plate reader, reading optical density at 600 nm every 5 minutes for the indicated time. YPD-grown overnight yeast cultures were used to inoculate these wells to an initial OD of 0.05. CRISPR-mutagenized loci were verified by sequence analysis of PCR products amplified from the target locus and by restriction digest where applicable.

| SMILES | drug resistance of cdr1/cdr1 cdr2/cdr2 double mutants versus parental isolate | drug sensitivity of snf1-K81R strain (SC5314 snf1-K81R) | doubling time (ade2 CDR1 CDR2 strain) | doubling time (ade2 cdr1 cdr2 mutant) |
| --- | --- | --- | --- | --- |
| C[C@@H]1C[C@@H]([C@H](O)CC2CC(=O)NC(=O)C2)C(=O)[C@@H](C)C1 [cycloheximide] | no longer displayed the hyper-resistance |  |  |  |
| OC(Cn1cncn1)(Cn1cncn1)c1ccc(F)cc1F [fluconazole] | no longer displayed the hyper-resistance | hypersensitive | 6 h | 12 h |
